Results published in patent US6737383B1, “Herbicidal oxadiazolidines” (priority 1999, dated 2004).

Tests used:
bedstraw = assay: Test B pre/postemergence bedstraw; type: in vivo, Galium aparine
Method in brief: (§1)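 Response is a visual 0-to-10 score relative to untreated plants, where 0 means no effect and 10 means complete control, taken twelve to sixteen days after application. Treatments went onto soil at planting and onto foliage of 1- to 4-leaf plants, using a surfactant-containing non-phytotoxic solvent.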

wild oat = assay: Test B pre/postemergence wild oat; type: in vivo, Avena fatua
Method in brief: as §1

smallflower flatsedge = assay: Test B flood test smallflower flatsedge; type: in vivo, Cyperus difformis
Method in brief: (§2)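 Flood test on plants grown to the 2-leaf stage; treated plants kept in greenhouse twelve to sixteen days, then visually rated against controls on a 0 (no effect) to 10 (complete control) scale.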

soybean = assay: Test B pre/postemergence soybean; type: in vivo, Glycine max
Method in brief: as §1

surinam grass = assay: Test B pre/postemergence surinam grass; type: in vivo, Brachiaria decumbens
Method in brief: as §1

sugar beet = assay: Test B pre/postemergence sugar beet; type: in vivo, Beta vulgaris
Method in brief: as §1

rice = assay: Test B flood test rice; type: in vivo, Oryza sativa
Method in brief: as §2

velvetleaf = assay: Test B pre/postemergence velvetleaf; type: in vivo, Abutilon theophrasti
Method in brief: as §1

bamyardgrass = assay: Test B flood test barnyardgrass; type: in vivo, Echinochloa crus-galli
Method in brief: as §2

blackgrass = assay: Test B pre/postemergence blackgrass; type: in vivo, Alopecurus myosuroides
Method in brief: as §1

rape = assay: Test B pre/postemergence rape; type: in vivo, Brassica napus
Method in brief: as §1

purple nutsedge = assay: Test B pre/postemergence purple nutsedge; type: in vivo, Cyperus rotundus
Method in brief: as §1

pigweed = assay: Test B pre/postemergence pigweed; type: in vivo, Amaranthus retroflexus
Method in brief: as §1

corn = assay: Test B pre/postemergence corn; type: in vivo, Zea mays
Method in brief: as §1

cocklebur = assay: Test B pre/postemergence cocklebur; type: in vivo, Xanthium strumarium
Method in brief: as §1

morningglory = assay: Test B pre/postemergence morningglory; type: in vivo, Ipomoea hederacea
Method in brief: as §1

[1] = Preemergence, Rate 62 g/ha, scale of 0 to 10 where 0 is no effect and 10 is complete control
[2] = Preemergence, Rate 125 g/ha, 0 is no effect, 10 is complete control
[3] = Preemergence, Rate 250 g/ha, scale 0 to 10, 0 is no effect, 10 is complete control
[4] = Preemergence, Rate 500 g/ha, scale 0 to 10 (0 no effect, 10 complete control)
[5] = Rate 62 g/ha, Postemergence, scale of 0 to 10 where 0 is no effect and 10 is complete control
[6] = Rate 125 g/ha, Postemergence, scale 0 to 10
[7] = Rate 500 g/ha, Postemergence, scale 0 to 10
[8] = Rate 62 g/ha, headed Pre-emergence (flood test species), scale 0 to 10 (0 no effect, 10 complete control)
[9] = Rate 125 g/ha, Pre-emergence, flood test species, scale 0 to 10 where 0 is no effect and 10 is complete control
[10] = Rate 250 g/ha, Pre-emergence, flood-test species, scale 0 to 10, 0 is no effect, 10 is complete control
[11] = Rate 500 g/ha, headed Pre-emergence (flood test species), scale 0 to 10 (0 no effect, 10 complete control)

Cc1ccccc1-n1c(=O)on(C(=O)N(c2ccc(-c3ccccc3)cc2)C(C)C)c1=O [Compound 187]
0: Bedstraw plant response rating (bedstraw; [1]) | Bedstraw plant response rating (0 to 10 scale) (bedstraw; [2]) | Bedstraw plant response rating (bedstraw; [3]) | Bedstraw plant response rating (bedstraw; [4]) | Bedstraw plant response rating (bedstraw; [5]) | Bedstraw plant response rating (bedstraw; [6]) | Plant response rating (0 to 10; 0 is no effect, 10 is complete control), Bedstraw (bedstraw; Rate 250 g/ha, Postemergence) | Bedstraw plant response rating (bedstraw; [7]) | Wild oats plant response rating (wild oat; [1]) | Wild oats plant response rating (wild oat; [3]) | Wild oats plant response rating (wild oat; [4]) | Wild oats plant response rating (wild oat; [5]) | Wild oats plant response rating (wild oat; [6]) | Plant response rating (0 to 10; 0 is no effect, 10 is complete control), Wild oats (wild oat; Rate 250 g/ha, Postemergence) | S. Flatsedge plant response rating (smallflower flatsedge; [8]) | S. Flatsedge plant response rating (smallflower flatsedge; [9]) | S. Flatsedge plant response rating (smallflower flatsedge; [10]) | S. Flatsedge plant response rating (smallflower flatsedge; Rate 500 g/ha, Pre-emergence, flood test species, scale 0 to 10 (0 no effect, 10 complete control)) | Soybean plant response rating (soybean; [1]) | Soybean plant response rating (0 to 10 scale) (soybean; [2]) | Soybean plant response rating (soybean; [3]) | Soybean plant response rating (soybean; [4]) | Soybean plant response rating (soybean; [5]) | Soybean plant response rating (soybean; [6]) | Plant response rating (0 to 10; 0 is no effect, 10 is complete control), Soybean (soybean; Rate 250 g/ha, Postemergence) | Soybean plant response rating (soybean; [7]) | B. signalgrass plant response rating (surinam grass; [1]) | B. signalgrass plant response rating (0 to 10 scale) (surinam grass; [2]) | B. signalgrass plant response rating (surinam grass; [3]) | B. signalgrass plant response rating (surinam grass; [4]) | B. signalgrass plant response rating (surinam grass; [5]) | B. signalgrass plant response rating (surinam grass; Rate 125 g/ha, Postemergence, scale 0 (no effect) to 10 (complete control)) | Plant response rating, B. signalgrass (surinam grass; Rate 250 g/ha, Postemergence, scale 0 to 10, 0 is no effect, 10 is complete control) | B. signalgrass plant response rating (surinam grass; Rate 500 g/ha, Postemergence, scale 0 to 10, 0 no effect, 10 complete control) | Sugarbeets plant response rating (sugar beet; [1]) | Sugarbeets plant response rating (0 to 10 scale) (sugar beet; [2]) | Sugarbeets plant response rating (sugar beet; [3]) | Sugarbeets plant response rating (sugar beet; [4]) | Sugarbeets plant response rating (sugar beet; [5]) | Sugarbeets plant response rating (sugar beet; [6]) | Plant response rating (0 to 10; 0 is no effect, 10 is complete control), Sugarbeets (sugar beet; Rate 250 g/ha, Postemergence) | Sugarbeets plant response rating (sugar beet; [7]) | Rice plant response rating (rice; [8]) | Rice plant response rating (rice; [9]) | Rice plant response rating (rice; [10]) | Plant response rating, Rice (rice; [11]) | Velvetleaf plant response rating (velvetleaf; [1]) | Velvetleaf plant response rating (velvetleaf; [3]) | Velvetleaf plant response rating (velvetleaf; [4]) | Velvetleaf plant response rating (velvetleaf; [5]) | Velvetleaf plant response rating (velvetleaf; [6]) | Plant response rating (0 to 10; 0 is no effect, 10 is complete control), Velvetleaf (velvetleaf; Rate 250 g/ha, Postemergence) | Barnyardgrass plant response rating (bamyardgrass; [8]) | Barnyardgrass plant response rating (bamyardgrass; [9]) | Barnyardgrass plant response rating (bamyardgrass; [10]) | Plant response rating, Barnyardgrass (bamyardgrass; [11]) | Blackgrass plant response rating (blackgrass; [1]) | Blackgrass plant response rating (0 to 10 scale) (blackgrass; [2]) | Blackgrass plant response rating (blackgrass; [3]) | Blackgrass plant response rating (blackgrass; [4]) | Blackgrass plant response rating (blackgrass; [5]) | Blackgrass plant response rating (blackgrass; [6]) | Plant response rating (0 to 10; 0 is no effect, 10 is complete control), Blackgrass (blackgrass; Rate 250 g/ha, Postemergence) | Blackgrass plant response rating (blackgrass; [7]) | Rape plant response rating (rape; [1]) | Rape plant response rating (0 to 10 scale) (rape; [2]) | Rape plant response rating (rape; [3]) | Rape plant response rating (rape; [4]) | Rape plant response rating (rape; [5]) | Rape plant response rating (rape; [6]) | Plant response rating (0 to 10; 0 is no effect, 10 is complete control), Rape (rape; Rate 250 g/ha, Postemergence) | Rape plant response rating (rape; [7]) | Nutsedge plant response rating (purple nutsedge; [1]) | Nutsedge plant response rating (0 to 10 scale) (purple nutsedge; [2]) | Nutsedge plant response rating (purple nutsedge; [3]) | Nutsedge plant response rating (purple nutsedge; [4]) | Nutsedge plant response rating (purple nutsedge; [5]) | Nutsedge plant response rating (purple nutsedge; [6]) | Plant response rating (0 to 10; 0 is no effect, 10 is complete control), Nutsedge (purple nutsedge; Rate 250 g/ha, Postemergence) | Nutsedge plant response rating (purple nutsedge; [7]) | Redroot pigweed plant response rating (pigweed; [1]) | Redroot pigweed plant response rating (0 to 10 scale) (pigweed; [2]) | Redroot pigweed plant response rating (pigweed; [3]) | Redroot pigweed plant response rating (pigweed; [4]) | Redroot pigweed plant response rating (pigweed; [5]) | Redroot pigweed plant response rating (pigweed; [6]) | Plant response rating (0 to 10; 0 is no effect, 10 is complete control), Redroot pigweed (pigweed; Rate 250 g/ha, Postemergence) | Redroot pigweed plant response rating (pigweed; [7]) | Corn plant response rating (corn; [1]) | Corn plant response rating (0 to 10 scale) (corn; [2]) | Corn plant response rating (corn; [3]) | Corn plant response rating (corn; [4]) | Corn plant response rating (corn; [5]) | Corn plant response rating (corn; [6]) | Plant response rating (0 to 10; 0 is no effect, 10 is complete control), Corn (corn; Rate 250 g/ha, Postemergence) | Corn plant response rating (corn; [7]) | Cocklebur plant response rating (cocklebur; [1]) | Cocklebur plant response rating (0 to 10 scale) (cocklebur; [2]) | Cocklebur plant response rating (cocklebur; [3]) | Cocklebur plant response rating (cocklebur; [4]) | Cocklebur plant response rating (cocklebur; [5]) | Cocklebur plant response rating (cocklebur; [6]) | Plant response rating (0 to 10; 0 is no effect, 10 is complete control), Cocklebur (cocklebur; Rate 250 g/ha, Postemergence) | Cocklebur plant response rating (cocklebur; [7]) | Morningglory plant response rating (morningglory; [1]) | Morningglory plant response rating (0 to 10 scale) (morningglory; [2]) | Morningglory plant response rating (morningglory; [3]) | Morningglory plant response rating (morningglory; [4]) | Morningglory plant response rating (morningglory; [5]) | Morningglory plant response rating (morningglory; [6]) | Plant response rating (0 to 10; 0 is no effect, 10 is complete control), Morningglory (morningglory; Rate 250 g/ha, Postemergence) | Morningglory plant response rating (morningglory; [7])
